Measured values from article PMC3835493, “Acetylshikonin, a Novel AChE Inhibitor, Inhibits Apoptosis via Upregulation of Heme Oxygenase-1 Expression in SH-SY5Y Cells” (Evidence-based Complementary and Alternative Medicine : eCAM, 2013).
Read-outs that look alike come from different tables or passages of the source.

Experiments:
[1] = target: T1, human recombinant AChE (Homo sapiens, UniProt P22303); test: AChE inhibition, Ellman assay; assay type: biochemical; settings: 37°C
T1 construct: made in house
Protocol: Candidate phytochemicals dissolved in DMSO were tested for AChE inhibitory activity by the Ellman assay with minor modifications. Ten μL of human recombinant AChE (prepared in-house) and 1 μL of drug were added into 190 μL of PBS buffer (100 mM, pH 7.4) and incubated in a 96-well plate at 37°C for 10 min. […] After 10 min incubation with the substrate, the optical densities were measured in a 96-well plate reader at 412 nm. The optical density was inversely proportional to the inhibitory activity. By contrast, a blank control without the tested compound was also performed in parallel; the normal hydrolytic rate of the enzyme can be represented by the blank control. Each assay was performed in triplicate.
The percentage inhibitory activities of the various compounds were calculated by comparison with the positive control and the blank control. […] Data analysis was performed with Prism software. Inhibitory effects were expressed as IC50 value calculated by regression analysis.

[2] = test system: PC12 cells; test: MTT cell viability, H2O2-induced cell death; assay type: cell-based, rat
Protocol: (§1) Human neuroblastoma SH-SY5Y cells were from ATCC (Manassas, VA, usa) and maintained in DMEM/F-12 containing 10% FBS and maintained at 37°C with 95% humidified air and 5% CO2. Rat adrenal medulla pheochromocytoma PC12 cells were from ATCC (Manassas, VA, USA) and maintained in DMEM containing 10% FBS at 37°C with 95% humidified air and 5% CO2.
(§2) MTT colorimetric assay was performed to determine the cell viability. Cells were seeded in 96-well plates at a density of 5 × 10^3 cells/well and treated with test chemicals at desired concentration at 37°C for 12 hours. Subsequently, cells were stimulated with H2O2 (500 μM) for 4 hours. After the exposure period, the cells were incubated with 20 μL MTT (5 mg/mL) for 4 h. The cells were eluted with DMSO and quantified with a spectrophotometer (Ultramark Microplate Reader, Bio-Rad) at a wavelength of 590 nm.

[3] = test system: SH-SY5Y cells; test: MTT cell viability, H2O2-induced cell death; assay type: cell-based, human
Protocol: as §1, §2

[4] = test system: Bcl-2, Bax, p53, caspase-3 in SH-SY5Y cells; test: Western blot of apoptosis-related proteins; assay type: cell-based, human; settings: pretreatment 12 h, H2O2 500 μM 1 h
Protocol: (§3) Proteins in the total cell lysate were separated by 10% SDS polyacrylamide gel electrophoresis and electrotransferred to a polyvinylidene difluoride membrane (Immobilon-P membrane; Millipore, Bedford, MA, USA). After the blot was blocked in a solution of 5% bovine serum albumin, membrane was incubated overnight with primary antibodies against Bcl-2, Bax, Caspase-3, p53, HO-1, or beta-actin followed by incubation with horseradish peroxidase-conjugated secondary antibodies for 1 h. Specific bands were detected with ECL-plus western blotting detection reagent (GE Healthcare Bio-Sciences) and photographed with FujiFilm LAS-3000 (Fujifilm, Tokyo, Japan).

[5] = test system: PC12 cells; test: Intracellular ROS measurement (H2DCF-DA); assay type: cell-based, rat; settings: acetylshikonin 5 and 10 μM 12 h, H2O2 500 μM 2 h
Protocol: (§4) The cells were treated with desired concentration of acetylshikonin for 12 hours, and then the cells were stained with H2DCF-DA (10 μM) for 30 min. After 30 min staining, cells were stimulated with H2O2 (500 μM) for 2 h, and the fluorescence intensity of H2DCF-DA was measured/detected by a fluorescence spectrophotometer (M1000, TECAN, Austria GmbH, Austria) using excitation/emission of 485/530 nm and a fluorescence microscope (Nikon Live Cell Imaging System Ti-E, Japan) using excitation/emission of 490/530 nm, respectively. Fluorescence intensity of each group was normalized to the control group.

[6] = test system: SH-SY5Y cells; test: Nuclear staining with Hoechst 33258 (apoptosis); assay type: cell-based, human; settings: pretreatment 12 h, H2O2 4 h
Protocol: (§5) SH-SY5Y cells and PC12 cells (1 × 10^4 cells/well) in 24-well plates were preincubated with or without test chemicals for 12 hours and subsequently stimulated with H2O2 for the 4 hours. The nuclear morphology of apoptotic cells was measured by Hoechst 33258 nuclear staining according to the manufacturer's instructions. The nuclear morphological change was observed under a fluorescence microscope (Nikon Live Cell Imaging System Ti-E, Japan) using excitation/emission of 360/460 nm.

[7] = test system: SH-SY5Y cells; test: Intracellular ROS measurement (H2DCF-DA); assay type: cell-based, human; settings: acetylshikonin 5 and 10 μM 12 h, H2O2 500 μM 2 h
Protocol: as §4

[8] = test system: Bcl-2, Bax, p53, caspase-3 in PC12 cells; test: Western blot of apoptosis-related proteins; assay type: cell-based, rat; settings: pretreatment 12 h, H2O2 500 μM 1 h
Protocol: as §3

[9] = test system: HO-1 in SH-SY5Y cells; test: Western blot of HO-1 expression; assay type: cell-based, human; settings: acetylshikonin 12 h, H2O2 500 μM 1 h
Protocol: as §3

[10] = test system: PC12 cells; test: Mitochondrial membrane potential (Rhodamine 123); assay type: cell-based, rat; settings: pretreatment 12 h, H2O2 500 μM 2 h
Protocol: as §4, with “were” for “were stained with H2DCF-DA (10 μM) for 30 min. After 30 min staining, cells were”, “2 h. Rhodamine 123 (2 μM) was added to cells after” for “2 h, and”, “the treatment for 30 min at 37°C. Fluorescence” for “the fluorescence”, “of Rhodamine 123” for “of H2DCF-DA”, “Japan) and” for “Japan)”

[11] = test system: HO-1 in PC12 cells; test: Western blot of HO-1 expression; assay type: cell-based, rat; settings: acetylshikonin 12 h, H2O2 500 μM 1 h
Protocol: as §3

[12] = test system: PC12 cells; test: Nuclear staining with Hoechst 33258 (apoptosis); assay type: cell-based, rat; settings: pretreatment 12 h, H2O2 4 h
Protocol: as §5

[13] = test system: SH-SY5Y cells; test: Cytotoxicity test by MTT without H2O2; assay type: cell-based, human; settings: 10 μM, 12 h, no H2O2
Protocol: as §2
(§6) Figure 1 Potential AChE inhibitors of natural products attenuated H2O2-induced cell death in both SH-SY5Y and PC12 cells. SH-SY5Y (a) or PC12 (b) cells were cultured with desired concentration of H2O2 for 4 hours; the cell viability was detected by MTT. Data shown are means ± SEM of results from independent experiments in triplicate. *P < 0.05 compared with control cells. SH-SY5Y (c) or PC12 (d) cells were incubated with different potential AChE inhibitors (10 μM) for 12 hours and then stimulated with H2O2 (500 μM) for 4 hours, and the viability was detected by MTT. […] For cytotoxicity test, SH-SY5Y (e) or PC12 (f) cells were incubated with different potential AChE inhibitors (10 μM) for 12 hours, and the viability was detected by MTT. […]

[14] = test system: PC12 cells; test: Cytotoxicity test by MTT without H2O2; assay type: cell-based, rat; settings: 10 μM, 12 h, no H2O2
Protocol: as §2, §6

[15] = test system: SH-SY5Y cells; test: Mitochondrial membrane potential (Rhodamine 123); assay type: cell-based, human; settings: pretreatment 12 h, H2O2 500 μM 2 h
Protocol: as §4, with “were” for “were stained with H2DCF-DA (10 μM) for 30 min. After 30 min staining, cells were”, “2 h. Rhodamine 123 (2 μM) was added to cells after” for “2 h, and”, “the treatment for 30 min at 37°C. Fluorescence” for “the fluorescence”, “of Rhodamine 123” for “of H2DCF-DA”, “Japan) and” for “Japan)”

[16] = IC50, human recombinant AChE, pH 7.4
[17] = human recombinant AChE, pH 7.4, read-out: IC50
[18] = ZnPP 10 μM 2 h, acetylshikonin 12 h, H2O2 500 μM 4 h, MTT
[19] = acetylshikonin 1–10 μM 12 h, then H2O2 500 μM 4 h
[20] = test chemical 10 μM 12 h, then H2O2 500 μM 4 h

T1 sequence (P22303 32-614): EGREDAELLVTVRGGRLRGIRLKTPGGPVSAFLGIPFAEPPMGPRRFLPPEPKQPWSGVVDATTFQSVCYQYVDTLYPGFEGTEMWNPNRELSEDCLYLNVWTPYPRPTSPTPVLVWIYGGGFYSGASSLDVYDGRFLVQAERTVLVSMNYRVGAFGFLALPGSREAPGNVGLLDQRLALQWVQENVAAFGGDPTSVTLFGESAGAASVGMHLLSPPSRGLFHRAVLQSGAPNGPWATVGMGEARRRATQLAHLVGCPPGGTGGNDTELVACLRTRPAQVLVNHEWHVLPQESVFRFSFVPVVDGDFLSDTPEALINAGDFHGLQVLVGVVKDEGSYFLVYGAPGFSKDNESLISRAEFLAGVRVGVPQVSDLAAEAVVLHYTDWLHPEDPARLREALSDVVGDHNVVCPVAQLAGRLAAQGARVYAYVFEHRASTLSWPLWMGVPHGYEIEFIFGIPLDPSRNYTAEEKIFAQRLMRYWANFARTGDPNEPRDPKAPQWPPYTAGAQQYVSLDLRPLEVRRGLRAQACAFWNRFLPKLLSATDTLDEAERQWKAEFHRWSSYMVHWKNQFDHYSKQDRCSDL

SMILES: Cc1cc(O)c2c(c1)C(=O)c1cc(O)cc(O)c1C2=O [Emodin]
- IC50 [1, 16]: 21.8 µM

SMILES: COc1c2occc2cc2ccc(=O)oc12 [Xanthotoxin]
- IC50 ([1]; human recombinant AChE, pH 7.4): 133 µM

SMILES: COc1c2ccoc2c(OCC=C(C)C)c2oc(=O)ccc12 [Phellopterin]
- IC50 [1, 17]: 177 µM

SMILES: O=C(O)c1cc(O)c2c(c1)C(=O)c1cccc(O)c1C2=O [Rhein]
- IC50 [1, 16]: 237 µM

SMILES: CC(C)=CCc1c2occc2c(O)c2ccc(=O)oc12 [Alloisoimperatorin]
- IC50 [1, 17]: 20.7 µM

SMILES: CC(C)=CCC(OC(=O)C=C(C)C)C1=CC(=O)c2c(O)ccc(O)c2C1=O (stereo not drawn) [β,β-Dimethylacrylshikonin]
- IC50 ([1]; human recombinant AChE, pH 7.4): 62.4 µM

SMILES: C=CC1=C(C)c2cc3[n-]c(cc4[n-]c(cc5nc(cc1n2)C(C)=C5C=C)c(C)c4CCC(=O)O)c(CCC(=O)O)c3C.[Zn+2] [ZnPP, zinc protoporphyrin IX, reference compound]
- Effect of ZnPP on protective effects of acetylshikonin on H2O2-induced cell death [2, 18]: not observed
- Effect of ZnPP on protective effects of acetylshikonin on H2O2-induced cell death [3, 18]: reversed the protective effects

SMILES: CC(C)=CCOc1c2occc2cc2ccc(=O)oc12 [Imperatorin]
- IC50 ([1]; human recombinant AChE, pH 7.4): Undetected

SMILES: CC(C)=CC[C@@H](O)C1=CC(=O)c2c(O)ccc(O)c2C1=O [Shikonin]
- IC50 [1, 16]: 71.8 µM

SMILES: Cc1cc(O)c2c(c1)C(=O)c1cccc(O)c1C2=O [Chrysophanol]
- IC50 [1, 16]: 75.8 µM

SMILES: CC(=O)O[C@H](CC=C(C)C)C1=CC(=O)c2c(O)ccc(O)c2C1=O [Acetylshikonin]
- Bax and p53 expression [4]: decreased
- Bcl-2 expression [4]: increased expression
- H2O2-induced decreased caspase-3 and increased cleaved caspase-3 [4]: rescued by acetylshikonin in a dose-dependent manner
- H2O2-induced ROS generation [5]: statistically declined
- H2O2-induced cell shrinkage and nuclear condensation (Hoechst 33258) [6]: dramatically ameliorated
- H2O2-induced ROS generation [7]: statistically declined
- Bax and p53 expression [8]: decreased
- Bcl-2 expression [8]: increased expression
- H2O2-induced decreased caspase-3 and increased cleaved caspase-3 [8]: rescued by acetylshikonin in a dose-dependent manner
- HO-1 expression [9]: increased
- H2O2-induced mitochondrial membrane potential loss [10]: rescued by acetylshikonin in a dose-dependent manner
- HO-1 expression [11]: no impact
- H2O2-induced cell shrinkage and nuclear condensation (Hoechst 33258) [12]: dramatically ameliorated
- Cytotoxicity in MTT assay [13]: not observed
- H2O2-induced cell death and morphology change, dose dependence [2, 19]: dose dependently attenuated
- H2O2-induced cell death (cell viability, MTT) [2, 20]: highest viability
- Cytotoxicity in MTT assay [14]: not observed
- H2O2-induced cell death and morphology change, dose dependence [3, 19]: dose dependently attenuated
- H2O2-induced cell death (cell viability, MTT) [3, 20]: highest viability
- H2O2-induced mitochondrial membrane potential loss [15]: rescued by acetylshikonin in a dose-dependent manner
- IC50 [1, 16]: 34.6 µM

SMILES: CC(C)=CCC(OC(=O)CC(C)C)C1=CC(=O)c2c(O)ccc(O)c2C1=O (stereo not shown) [Isovalerylshikonin]
- IC50 [1, 17]: 82.4 µM

SMILES: O=C1c2cccc(O)c2C(=O)c2c(O)cc(CO)cc21 [Aloe-emodin]
- IC50 [1, 16]: 26.8 µM
